Earlier results, collected in patent US20060159736A1, “Liposome formulations of boronic acid compounds” (priority 2004, published 2006).
Like-named read-outs stand apart in the source and are kept apart here.

Key:
[1] = intravenous bolus on days 1, 4, 8, and 11 of a 3-week cycle
[2] = given intravenously once or twice weekly; patients with solid tumors
[3] = test system: human prostate cancer xenograft; conditions: human prostate xenograft models
tumor lines = conditions: range of tumor lines
[4] = test system: cancer tissues (breast, ovarian, prostate, lung) and tumors (pancreatic tumors, lymphomas, melanoma)
lung cancer xenograft = lung cancer xenograft models

SMILES: CC(C)C[C@H](NC(=O)[C@H](Cc1ccccc1)NC(=O)c1cnccn1)B(O)O [bortezomib]
- maximum tolerated dose [1]: 1.56 mg/m^2
- maximum tolerated dose [2]: 1.3 mg/m^2
- antitumor activity [3]: had antitumor activity
- cytotoxicity (tumor lines): showed cytotoxicity against a range of tumor lines
- activity against cancer tissues and tumors [4]: activity against a variety of cancer tissues
- antitumor activity (lung cancer xenograft): had antitumor activity
